Source: patent publication US9464064B2, “HCV helicase inhibitors and methods of use thereof” (University of Kansas, priority 2011, dated 2016)

Biological target: T1, HCV NS3 helicase NS3h_1b(con1) (Hepatitis C virus genotype 1b, UniProt Q9WMX2)
T1 construct: truncated C-terminally His-tagged NS3 proteins lacking the N-terminal protease, called NS3h; His-tag (C); made in house
Experiment: MBHA screen of NCI mechanistic set library at 20 μM (percent inhibition, compound interference)
Type: biochemical
Settings: compounds at 20 μM; for Inh. (%) (Inhibition): calculated from Equation 1
Method in brief: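 Molecular beacon-based DNA unwinding assay; compounds screened at 20 μM in triplicate, with DMSO-only negative and 500 nM dT20 positive controls. Fluorescence (ex 643/em 670 nm) was read before and 30 min after adding ATP to 1 mM. Percent inhibition came from the change relative to DMSO controls; interference from pre-ATP fluorescence versus DMSO controls.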

[1] = MBHA with DNA substrate, assay interference calculated with Equation 2
[2] = assay interference calculated with Equation 2 (fluorescence vs DMSO-only controls before ATP)

T1 sequence (Q9WMX2 1192-1657): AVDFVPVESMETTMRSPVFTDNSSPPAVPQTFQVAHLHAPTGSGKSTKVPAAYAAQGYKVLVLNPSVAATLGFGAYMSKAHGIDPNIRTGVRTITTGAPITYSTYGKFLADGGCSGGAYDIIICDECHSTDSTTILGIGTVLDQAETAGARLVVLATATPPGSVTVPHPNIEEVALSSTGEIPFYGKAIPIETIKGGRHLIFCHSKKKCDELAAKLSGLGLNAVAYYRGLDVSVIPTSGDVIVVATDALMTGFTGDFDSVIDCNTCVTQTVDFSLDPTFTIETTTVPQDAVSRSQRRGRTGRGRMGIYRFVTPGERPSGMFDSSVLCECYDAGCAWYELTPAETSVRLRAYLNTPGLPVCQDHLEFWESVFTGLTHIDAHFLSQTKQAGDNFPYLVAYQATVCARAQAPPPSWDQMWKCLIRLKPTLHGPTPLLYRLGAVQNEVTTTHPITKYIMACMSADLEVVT

| Int.* (Ratio) (Interference) [1] | Inh. (%) (Inhibition) (MBHA with DNA substrate) | Inh. (%) (Inhibition) (MBHA with a DNA substrate) | Int.* (Ratio) (Interference) [2] | Compound |
| --- | --- | --- | --- | --- |
| 0.22 | 99.2 | – | – | COc1ccc2[nH]c3c(C)c4ccncc4c(C)c3c2c1 [Compound 69187] |
| 0.90 | 4.4 | – | – | Cc1ccccc1NC(=O)C(=O)C(C#N)c1ccccc1C (stereo not shown) [Compound 636132] |
| 0.91 | 38.9 | – | – | COc1cc(O)c2c(c1)C(=O)c1cc3c(c(O)c1C2=O)C(OC1OC(C)C(O)C(O)C1OC)C(OC)C(C)(O)C3=O (stereo not shown) [Compound 93419] |
| – | – | −22.6 | 0.93 | O=C1c2ccccc2C(=O)c2sc(Nc3ccc(Cl)c(Cl)c3)nc21 [Compound 631521] |
| 0.83 | 21.5 | – | – | O=[N+]([O-])c1ccc(-c2cn(-c3ccc(Cl)cc3)cn2)cc1 [Compound 610744] |
| 0.89 | 15.0 | – | – | COC(C(=O)C(O)C(C)O)C1Cc2cc3cc(OC4CC(OC5CC(O)C(O)C(C)O5)C(O)C(C)O4)c(C)c(O)c3c(O)c2C(=O)C1OC1CC(OC2CC(OC3CC(O)C(OC)C(C)O3)C(O)C(C)O2)C(O)C(C)O1 (stereo not shown) [Compound 269146] |
| – | – | −3.1 | 0.76 | Cl.O=C1/C(=C\c2ccc(Cl)c(Cl)c2)CN(C(=O)CCN2CCOCC2)C/C1=C\c1ccc(Cl)c(Cl)c1 [Compound 638646] |
| 1.11 | −9.3 | – | – | CC1(c2cccc3ccccc23)OC(=O)c2ccccc21 (stereo not shown) [Compound 97703] |
| – | – | −40.6 | 1.02 | Cc1cc(=O)[nH]c(NN2C(Cl)C(=O)C2c2c(O)ccc3ccccc23)n1 (stereo not shown) [Compound 653016] |
| 0.91 | 26.6 | – | – | CC(C)c1ccc2nc3ccc(C(=O)NCCN(C)C)cn3c(=O)c2c1 [Compound 600305] |
| 0.93 | −17.1 | – | – | COc1cc(/C=C(\OC(C)=O)c2ccc3c(c2)OCO3)cc(OC)c1OC [Compound 647363] |
| – | – | −6.6 | 1.06 | CN=c1sc2c(n1C)C(=O)c1ccccc1C2=O [Compound 659501] |
| 0.91 | 23.5 | – | – | O=C1Oc2ccccc2C1C/C(=N\Nc1ccccc1)c1ccccc1O (stereo not shown) [Compound 647613] |
| – | – | −7.0 | 1.17 | CN(C)c1ccc(/C=C2/C=Cc3ccccc32)cc1 [Compound 80087] |
| – | – | −25.9 | 0.91 | OCCOc1ccc(-c2cc(-c3ccccn3)nc(-c3ccccn3)c2)cc1 [Compound 640499] |
| 0.86 | 25.9 | – | – | CC(CN(C)C)C(=O)c1ccccc1C(=O)O (stereo not shown) [Compound 22992] |
| – | – | −3.6 | 0.87 | COc1cc2c3c(c1OC)-c1cc4c(cc1CC3(C#N)N(C(=O)c1ccccc1)CC2)OCO4 (stereo not shown) [Compound 627666] |
| 1.06 | 2.3 | – | – | CCOC(=O)CCn1ncc(Cl)c(Cl)c1=O [Compound 634471] |
| 0.77 | 31.7 | – | – | CO[C@H]1/C=C\C=C(/C)C(=O)NC2=CC(=O)C(N)=C(C[C@@H](C)C[C@H](OC)[C@H](O)[C@@H](C)/C=C(\C)[C@@H]1OC(N)=O)C2=O [Compound 255109] |
| 0.96 | −0.8 | – | – | Cc1c(Cl)cccc1NC(=O)c1cccc([N+](=O)[O-])c1O [Compound 328477] |
| – | – | 11.4 | 0.80 | COc1cc2oc3cc(=O)cc4oc(-c5ccccc5)cc(c2c2c1CCC(c1ccccc1)O2)c43 (stereo not shown) [Compound 376248] |
| 0.97 | −0.5 | – | – | O=C1c2cccc(O)c2C(=O)c2c(O)cccc21 [Compound 7210] |

| Int.* (Ratio) (Interference) [1] | Inh. (%) (Inhibition) (MBHA with DNA substrate) | Inh. (%) (Inhibition) (MBHA with a DNA substrate) | Int.* (Ratio) (Interference) [2] | Compound |
| --- | --- | --- | --- | --- |
| 0.89 | 13.6 | – | – | C/C=C(\CCC1NCCc2c1[nH]c1ccccc21)[Si](C)(C)C (stereo not shown) [Compound 619165] |
| – | – | −4.0 | 1.05 | Nc1ncnc2c1nc(Cl)n2[C@@H]1O[C@@H]2COP(=O)(O)O[C@H]2[C@H]1O [Compound 284751] |
| 0.23 | 56.7 | – | – | COc1ccc2nc(C)cc(NCCCCCCCCCNc3cc(C)nc4ccc(OC)cc34)c2c1 [Compound 10010] |
| – | – | −3.4 | 0.95 | COc1ccc(/C=C2\N=C(c3ccccc3)OC2=O)c(OCc2ccccc2)c1 [Compound 262665] |
| 0.42 | 27.4 | – | – | C[n+]1cc2cc(O)c(O)cc2c2ccc3cc(O)c(O)cc3c21.Cl.[Cl-].c1ccncc1 [Compound 184403] |
| 0.86 | 2.1 | – | – | COc1ccc2c(c1)CCc1c-2n[nH]c1-c1[nH]nc2c1CCc1cc(OC)ccc1-2 [Compound 371846] |
| 1.01 | −17.3 | – | – | CCN1CCC(O)(/C=C/c2ccc(C)cc2)C(C(=O)/C=C/c2ccc(C)cc2)C1.Cl (stereo not shown) [Compound 657298] |
| 0.87 | 13.9 | – | – | CC1(C)CCCC2(C)C3=C(CCC12)C(=O)OC3 (stereo not shown) [Compound 375294] |
| 0.85 | −15.0 | – | – | CCCCCCCCCCCCCCCCCCOCC(COP(=O)([O-])OCC[N+](C)(C)C)OC (stereo not shown) [Compound 324368] |
| 0.94 | 20.5 | – | – | COc1cc2oc(=O)cc(C)c2cc1[N+](=O)[O-] [Compound 299879] |
| 0.97 | 5.9 | – | – | O=C(NCCCCCCCCNC(=O)c1cccc2ccccc12)c1cccc2ccccc12 [Compound 629738] |
| 0.87 | 28.4 | – | – | Nc1nc(N)c2cc(Sc3cccc(C(F)(F)F)c3)ccc2n1 [Compound 305782] |
| 1.17 | 2.7 | – | – | O=C1C(c2cnc3ccccc3n2)=C(O)c2ccccc21 [Compound 634224] |
| 0.99 | −8.1 | – | – | CN(C)[C@@H]1C(=O)C(C(N)=O)=C(O)[C@@]2(O)C(=O)C3=C(O)c4c(O)cccc4C[C@H]3C[C@@H]12 [Compound 51812] |
| 1.05 | 1.1 | – | – | COc1ccc(-c2csc(=[N+]3CCCCC3)s2)cc1.O=S(=O)(O)O [Compound 302358] |
| 0.97 | 1.2 | – | – | OCCNCN(CNCCO)c1nc(N(CNCCO)CNCCO)nc(N(CNCCO)CNCCO)n1 [Compound 653000] |
| 0.70 | 76.4 | – | – | CCN(CC)CCN1C(=O)c2c(c3c4cccc(Cl)c4n(C4OC(CO)C(OC)C(O)C4O)c3c3[nH]c4c(Cl)cccc4c23)C1=O (stereo not shown) [Compound 640199] |
| – | – | 7.6 | 0.86 | Cc1ccc([S+](c2ccc(C)cc2)c2ccc(C)cc2)cc1 [Compound 157930] |
| – | – | 8.9 | 1.04 | CC(=O)N(C)c1ccc(Nc2cc(C)[nH]c3ccc4ncnc4c23)cc1.Cl [Compound 305884] |
| 1.08 | −7.3 | – | – | CC1(C)NC(=O)N(CCCCCCN2C(=O)NC(C)(C)C2=O)C1=O [Compound 376791] |
| 0.99 | −17.3 | – | – | C=C1C(=O)OC2CC1C(OC(C)=O)C/C(C)=C/CC/C(C)=C\CCC2(C)O (stereo not shown) [Compound 36437] |
| 0.92 | 17.5 | – | – | NCCCNCCSP(=O)(O)O [Compound 296961] |

| Compound | Int.* (Ratio) (Interference) [1] | Inh. (%) (Inhibition) (MBHA with DNA substrate) | Inh. (%) (Inhibition) (MBHA with a DNA substrate) | Int.* (Ratio) (Interference) [2] |
| --- | --- | --- | --- | --- |
| CC12CCC(O)CC1CCC1C2CCC2(C)C(C3=CC(=O)OC3)CCC12O (stereo not shown) [Compound 407806] | 1.00 | −11.1 | – | – |
| CCCCCn1cc2c3c(cccc31)C1C=C(C)CN(C)[C@@H]1C2.Cc1ccc(C(=O)OC(C(=O)O)C(OC(=O)c2ccc(C)cc2)C(=O)O)cc1 (stereo not shown) [Compound 600681] | 0.95 | −19.1 | – | – |
| COc1cc2c(c3oc4cccc(O)c4c(=O)c13)[C@@H]1C=CO[C@@H]1O2 [Compound 204985] | 1.05 | 5.4 | – | – |
| C[n+]1ccc(-c2cc[n+](C)cc2)cc1.[Cl-].[Cl-] [Compound 263500] | 1.18 | −8.7 | – | – |
| C=C1C(=O)O[C@@H]2C[C@@H](C)[C@@H]3C=CC(=O)[C@@]3(C)[C@@H](O)[C@H]12 [Compound 85236] | 1.20 | 0.4 | – | – |
| CC(=O)OC1C(O)C(C)OC(OC2C(OC(=O)C3CCC4C(C3)OC3(CC(OC(=O)/C=C/c5ccccc5)C(C)CO3)C43CO3)OC(C)C(O)C2OC(C)=O)C1O (stereo not shown) [Compound 328426] | – | – | −3.0 | 1.00 |
| CC(=O)[O][Hg][c]1c(C)c(C)c(C)c(C)c1C [Compound 174176] | 1.04 | 6.0 | – | – |
| COc1ccc(NC2=NCCO2)c2c1CCCC2 [Compound 663996] | 1.08 | −2.7 | – | – |
| CC[C@@]1(O)C[C@H](O)c2c(O)c3c(c(O)c2[C@H]1C(=O)OC)C(=O)c1cccc(O)c1C3=O [Compound 196524] | 1.02 | 3.3 | – | – |
